Data as given in patent publication US20260027126A1, “COMBINATION THERAPY FOR TREATING CANCERS” (GEISTLICH PHARMA AG, priority 2022, published 2026).
Entries after “also recorded” stand apart in the source; their conditions may differ. One block for each compound: values may come before it.

Experiments:
[1] = tested on: high-grade ovarian cancer cells (OVCAR8) labeled with luciferase gene; assay: in vivo therapy experiment, orthotopic OVCAR8-L ovarian cancer mouse model; parameters: species or system mice; conditions: GP-2250 500 mg/kg 3 times per week i.p., PARP inhibitor 50 mg/kg 5 times per week i.p., take down day 49
Method: FIG. 1 schematically illustrates the experimental design for in vivo testing of the GP-2250 and PARP inhibitors on OVCAR8-L mice. The experiment includes testing: vehicle control, Ringer's solution (10 mice, 200 μl, i.p.); 2) GP-2250 (10 mice, 500 mg/kg. 3 times per week, i.p.); 3) Olaparib (10 mice, 50 mg/kg, 5 times per week, i.p.); 4) the combination of GP-2250 and Olaparib; 5) Niraparib (10 mice, 50 mg/kg, 5 times per week, i.p.); 6) the combination of GP-2250 and Niraparib (10 mice): 7) Rucparib (10 mice, 50 mg/kg, 5 times per week, i.p.); 8) the combination of GP-2250 and Rucaparib . . .
Tumorigenicity of OVCAR8-L was determined using IVIS imaging. IVIS imaging following OCVAR8-L injection. 1×10^6 cells were injected through i.p., and then tumorigenicity was measured. All mice were injected with high-grade ovarian cancer cells (OVCAR8) labeled with luciferase gene by i.p. route.
(§1) In vivo model of ovarian cancer: Pharmacodynamic study and therapeutic experiment using OVCAR8 ovarian cancer model were performed.

[2] = solubility; format: physicochemical
[3] = tested on: ovarian cancer cell lines; assay: cytotoxic effect / cell viability assay in ovarian cancer cell lines; format: cell-based, Human
Method: (§2) Human Ovarian cancer cell lines: A2780, Coav3, HeyA8, HeyA8-MDR, Kuramochi, OVCAR3, OVCAR5, OVCAR8, and SKOV3 were obtained and used in studies.
(§3) In vitro assays: Cell viability assay, Western blotting, Colony formation assay, Reverse-phase protein array, and Ultra-high resolution mass spectrometry analysis were performed.
as §1

[4] = tested on: HIF-1α; assay: Reverse Phase Protein Array / Western blotting of ovarian cancer cells: HIF-1α; format: cell-based, Human
Method: as §2, §3

[5] = tested on: AKT; assay: Reverse Phase Protein Array / Western blotting of ovarian cancer cells: AKT; format: cell-based, Human
Method: as §2, §3

[6] = tested on: mTOR; assay: Reverse Phase Protein Array / Western blotting of ovarian cancer cells: mTOR; format: cell-based, Human
Method: as §2, §3

[7] = target: T1, hexokinase2 (Homo sapiens, UniProt P52789); assay: hexokinase2 activity and expression (ultra-high resolution mass spectrometry analysis, FIG. 16); format: cell-based; conditions: GP-2250 treatment of cancer cells
T1 construct: endogenous in cells; host or cells: human ovarian cancer cell lines
T1 sequence (P52789 1-917): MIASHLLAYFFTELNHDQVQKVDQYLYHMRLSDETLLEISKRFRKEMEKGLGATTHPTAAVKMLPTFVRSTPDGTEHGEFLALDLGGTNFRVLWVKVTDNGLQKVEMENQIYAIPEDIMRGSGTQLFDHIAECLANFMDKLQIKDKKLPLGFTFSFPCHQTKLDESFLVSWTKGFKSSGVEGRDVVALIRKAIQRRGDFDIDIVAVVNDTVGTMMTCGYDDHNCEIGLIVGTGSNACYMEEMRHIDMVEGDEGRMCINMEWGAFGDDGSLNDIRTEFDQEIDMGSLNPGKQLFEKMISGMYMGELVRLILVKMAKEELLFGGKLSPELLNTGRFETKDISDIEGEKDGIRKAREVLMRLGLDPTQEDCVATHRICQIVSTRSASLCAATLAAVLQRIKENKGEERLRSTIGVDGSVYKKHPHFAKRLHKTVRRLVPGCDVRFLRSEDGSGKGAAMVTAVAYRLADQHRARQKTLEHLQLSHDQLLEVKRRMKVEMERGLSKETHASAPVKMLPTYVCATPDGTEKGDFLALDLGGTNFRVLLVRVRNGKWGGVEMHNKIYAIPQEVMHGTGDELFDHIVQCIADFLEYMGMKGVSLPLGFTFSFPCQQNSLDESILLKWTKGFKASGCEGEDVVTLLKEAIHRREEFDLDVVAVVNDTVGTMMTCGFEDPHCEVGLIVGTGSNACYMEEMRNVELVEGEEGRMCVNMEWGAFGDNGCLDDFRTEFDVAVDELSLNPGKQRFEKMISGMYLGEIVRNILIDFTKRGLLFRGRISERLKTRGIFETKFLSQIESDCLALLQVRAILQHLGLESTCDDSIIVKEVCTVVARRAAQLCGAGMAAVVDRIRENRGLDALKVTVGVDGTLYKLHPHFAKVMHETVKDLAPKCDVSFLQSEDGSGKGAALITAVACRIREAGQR
Method: as §2, §3

[8] = tested on: cancer cells; assay: glycolysis and ATP synthesis in cancer cells; format: cell-based, Human
Method: as §3

[9] = tested on: AKT; assay: in vivo pharmacodynamic experiment, OVCAR8 mouse model: AKT; conditions: dose of 500 mg/kg
Method: as §1
(§4) FIGS. 17A-17B show pharmacodynamics studies of GP-2250.

[10] = tested on: mTOR; assay: in vivo pharmacodynamic experiment, OVCAR8 mouse model: mTOR; conditions: dose of 500 mg/kg
Method: as §1, §4

[11] = Western blot, ovarian cancer cells treated for 24 hours

solubility [2]: relatively poor solubility
Compound: CNCc1ccc(-c2[nH]c3cc(F)cc4c3c2CCNC4=O)cc1 [rucaparib]
tumor nodules (number) [1]: 4.85±0.79
tumor weight [1]: 0.52 ± 0.1 g

Compound: NC(=O)c1cccc2cn(-c3ccc([C@@H]4CCCNC4)cc3)nc12 [niraparib]
tumor nodules (number) [1]: 3.4±0.44
tumor weight [1]: 0.38 ± 0.05 g

Compound: O=C(c1cc(Cc2n[nH]c(=O)c3ccccc23)ccc1F)N1CCN(C(=O)C2CC2)CC1 [olaparib]
tumor nodules (number) [1]: 3.3±0.64
tumor weight [1]: 0.53 ± 0.09 g

Compound: O=S1(=O)CCOCN1 [GP-2250]
tumor nodules (number) [1]: 2.9±0.48
tumor weight [1]: 2.9 ± 0.48 g
cytotoxic effect: vulnerability of HRD versus HRP ovarian cancer cells ([3]; HRD cells (Kuramochi, OVCAR4, OVCAR8) compared with HRP cells (A2780, OVCAR5), both vulnerable): more vulnerable
apoptosis ([3]; ovarian cancer cells): increased apoptosis
proliferation ([3]; ovarian cancer cells): reduced proliferation
hypoxia-inducible factor-1a activation and expression level ([4]; RPPA analyses): inhibited
HIF-1α expression [4, 11]: inhibits
AKT activation and expression level ([5]; RPPA analyses): inhibited
AKT expression [5, 11]: inhibits
mTOR activation and expression level ([6]; RPPA analyses): inhibited
mTOR expression [6, 11]: inhibits
hexokinase2 activity and expression [7]: inhibition; also recorded: significantly reduced
ATP synthesis [8]: reduced
glycolysis [8]: decreases; also recorded: reduced
downregulation of AKT activation and expression [9]: most effective
downregulation of mTOR activation and expression [10]: most effective
